Data reported in patent US8192962B2, “Processes for detecting toxic substances” (Daikin Industries, Ltd., priority 2001, dated 2012).

Tested on: Mitochondria-located protein genes
Assay: DNA chip mRNA expression in yeast, mitochondria-located protein genes (Table 2)
Type: cell-based, Saccharomyces cerevisiae S288C
Conditions: cells incubated two hours with the chemical substance
How it was run: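 Measured as treated-to-untreated fluorescence ratio on a full-genome yeast DNA chip. Cells (S288C, YPD, 25° C.) were exposed in log phase for two hours to one chemical, dosed to curb growth without killing.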

CCCCCCCCCCCCc1ccc(S(=O)(=O)[O-])cc1.[Na+] [(17), sodium dodecylbenzosulfonate]
The level of expressed mRNA in the presence of chemical substance/The level of expressed mRNA in the absence of chemical substance (yeast gene YJR121W): 1.1
The level of expressed mRNA in the presence of chemical substance/The level of expressed mRNA in the absence of chemical substance (yeast gene YKL003C): 1.0
The level of expressed mRNA in the presence of chemical substance/The level of expressed mRNA in the absence of chemical substance (yeast gene YKL016C): 1.0
The level of expressed mRNA in the presence of chemical substance/The level of expressed mRNA in the absence of chemical substance (yeast gene YKL141W): 0.9
The level of expressed mRNA in the presence of chemical substance/The level of expressed mRNA in the absence of chemical substance (yeast gene YKL142W): 2.4
The level of expressed mRNA in the presence of chemical substance/The level of expressed mRNA in the absence of chemical substance (yeast gene YKL148C): 0.8
The level of expressed mRNA in the presence of chemical substance/The level of expressed mRNA in the absence of chemical substance (yeast gene YKL170W): 1.1
The level of expressed mRNA in the presence of chemical substance/The level of expressed mRNA in the absence of chemical substance (yeast gene YKL194C): 1.1
The level of expressed mRNA in the presence of chemical substance/The level of expressed mRNA in the absence of chemical substance (yeast gene YKR066C): 0.9
The level of expressed mRNA in the presence of chemical substance/The level of expressed mRNA in the absence of chemical substance (yeast gene YLL041C): 1.1
The level of expressed mRNA in the presence of chemical substance/The level of expressed mRNA in the absence of chemical substance (yeast gene YLR038C): 1.2
The level of expressed mRNA in the presence of chemical substance/The level of expressed mRNA in the absence of chemical substance (yeast gene YLR259C): 0.8
The level of expressed mRNA in the presence of chemical substance/The level of expressed mRNA in the absence of chemical substance (yeast gene YLR295C): 0.9
The level of expressed mRNA in the presence of chemical substance/The level of expressed mRNA in the absence of chemical substance (yeast gene YLR304C): 0.5
The level of expressed mRNA in the presence of chemical substance/The level of expressed mRNA in the absence of chemical substance (yeast gene YLR348C): 1.1
The level of expressed mRNA in the presence of chemical substance/The level of expressed mRNA in the absence of chemical substance (yeast gene YLR395C): 1.2
The level of expressed mRNA in the presence of chemical substance/The level of expressed mRNA in the absence of chemical substance (yeast gene YML054C): 1.1
The level of expressed mRNA in the presence of chemical substance/The level of expressed mRNA in the absence of chemical substance (yeast gene YML120C): 1.0
The level of expressed mRNA in the presence of chemical substance/The level of expressed mRNA in the absence of chemical substance (yeast gene YML129C): 1.3
The level of expressed mRNA in the presence of chemical substance/The level of expressed mRNA in the absence of chemical substance (yeast gene YMR023C): 1.1
The level of expressed mRNA in the presence of chemical substance/The level of expressed mRNA in the absence of chemical substance (yeast gene YMR035W): 2.2
The level of expressed mRNA in the presence of chemical substance/The level of expressed mRNA in the absence of chemical substance (yeast gene YMR083W): 0.9
The level of expressed mRNA in the presence of chemical substance/The level of expressed mRNA in the absence of chemical substance (yeast gene YMR089C): 0.9
The level of expressed mRNA in the presence of chemical substance/The level of expressed mRNA in the absence of chemical substance (yeast gene YMR152W): 1.5
The level of expressed mRNA in the presence of chemical substance/The level of expressed mRNA in the absence of chemical substance (yeast gene YMR203W): 0.8
The level of expressed mRNA in the presence of chemical substance/The level of expressed mRNA in the absence of chemical substance (yeast gene YMR267W): 0.9
The level of expressed mRNA in the presence of chemical substance/The level of expressed mRNA in the absence of chemical substance (yeast gene YNL055C): 1.2
The level of expressed mRNA in the presence of chemical substance/The level of expressed mRNA in the absence of chemical substance (yeast gene YNL071W): 1.0
The level of expressed mRNA in the presence of chemical substance/The level of expressed mRNA in the absence of chemical substance (yeast gene YNL073W): 0.8
The level of expressed mRNA in the presence of chemical substance/The level of expressed mRNA in the absence of chemical substance (yeast gene YNL104C): 0.9
The level of expressed mRNA in the presence of chemical substance/The level of expressed mRNA in the absence of chemical substance (yeast gene YNL256W): 0.6
The level of expressed mRNA in the presence of chemical substance/The level of expressed mRNA in the absence of chemical substance (yeast gene YOL096C): 1.2
The level of expressed mRNA in the presence of chemical substance/The level of expressed mRNA in the absence of chemical substance (yeast gene YOR020C): 1.4
The level of expressed mRNA in the presence of chemical substance/The level of expressed mRNA in the absence of chemical substance (yeast gene YOR037W): 1.2
The level of expressed mRNA in the presence of chemical substance/The level of expressed mRNA in the absence of chemical substance (yeast gene YOR100C): 0.9
The level of expressed mRNA in the presence of chemical substance/The level of expressed mRNA in the absence of chemical substance (yeast gene YOR130C): 1.5
The level of expressed mRNA in the presence of chemical substance/The level of expressed mRNA in the absence of chemical substance (yeast gene YOR142W): 0.9
The level of expressed mRNA in the presence of chemical substance/The level of expressed mRNA in the absence of chemical substance (yeast gene YOR150W): 0.9
The level of expressed mRNA in the presence of chemical substance/The level of expressed mRNA in the absence of chemical substance (yeast gene YOR176W): 1.2
The level of expressed mRNA in the presence of chemical substance/The level of expressed mRNA in the absence of chemical substance (yeast gene YOR187W): 0.8
The level of expressed mRNA in the presence of chemical substance/The level of expressed mRNA in the absence of chemical substance (yeast gene YOR316C): 0.8
The level of expressed mRNA in the presence of chemical substance/The level of expressed mRNA in the absence of chemical substance (yeast gene YPL040C): 0.8
The level of expressed mRNA in the presence of chemical substance/The level of expressed mRNA in the absence of chemical substance (yeast gene YPL134C): 1.3
The level of expressed mRNA in the presence of chemical substance/The level of expressed mRNA in the absence of chemical substance (yeast gene YPL135W): 1.5
The level of expressed mRNA in the presence of chemical substance/The level of expressed mRNA in the absence of chemical substance (yeast gene YPL215W): 1.0
The level of expressed mRNA in the presence of chemical substance/The level of expressed mRNA in the absence of chemical substance (yeast gene YPL262W): 1.1
The level of expressed mRNA in the presence of chemical substance/The level of expressed mRNA in the absence of chemical substance (yeast gene YPR024W): 1.1
The level of expressed mRNA in the presence of chemical substance/The level of expressed mRNA in the absence of chemical substance (yeast gene YPR037C): 1.2
The level of expressed mRNA in the presence of chemical substance/The level of expressed mRNA in the absence of chemical substance (yeast gene YPR047W): 1.0
The level of expressed mRNA in the presence of chemical substance/The level of expressed mRNA in the absence of chemical substance (yeast gene YPR134W): 1.0
